From US20240197726A1, “NOVEL TETRAHYDROISOQUINOLINE ALKALOID COMPOUND CONTAINING MACROCYCLE” (THE UNIVERSITY OF TOKYO, priority 2021, published 2024)
Read-outs that look alike come from different tables or passages of the source.

Experiments:
[1] = tested on: MCF-7 breast cancer cells; conditions: cited from earlier work
[2] = tested on: MDA-MB-231 breast cancer cells; conditions: cited from earlier work
[3] = tested on: HT-29 colorectal cancer cells; conditions: cited from earlier work
[4] = tested on: HCT-116 colorectal cancer cells; conditions: cited from earlier work
[5] = tested on: NCI-H23 lung cancer cells; conditions: cited from earlier work
[6] = tested on: NCI-H460 lung cancer cells; conditions: cited from earlier work
A549 lung cancer cells [7] = conditions: cited from earlier work
[8] = tested on: HBC-4 breast cancer cells; test: antitumor activity, sulforhodamine B cell growth assay, HBC-4; assay type: cell-based; conditions: HBC-4 breast cancer cells; read-out: antitumor activity GI50 value: 50% growth inhibitory concentration
Description: (§1) The THIQ compound containing a macrocyclic structure of the present invention was administered to various cancer cell lines, and the antitumor activity (Go value) was observed. Specifically, verification was performed according to the literature (Yamori, T.; Matsunaga, A.; Sato, S.; Yamazaki, K.; Komi, A.; Ishizu, K. et al. Cancer Res. 1999, 59, 4042) by the following procedure.
(§2) Cells were plated at an appropriate density in a 96-well plate in RPMI 1640 together with 5% fetal bovine serum, and adhered overnight. The cells were exposed to a drug for 48 hours. Then, according to the sulforhodamine B assay described by Skehan et al (Skehan P., Storeng R., Scudiero D., Monks A., McMahon J., Vistica D., Warren J. T., Bokesch H., Kenney S., Boyd M. R. J Natl. Cancer Inst, 1990, 82, 1107-1112), the cell growth rate was measured. The absorbance of the control well (C) and the test well (T) was measured at 525 nm. In addition, the time at which the drug was added was set as time 0, and the absorbance for the test well (T0) was measured. Using these measured values, the cell growth inhibitory effect (% growth=PG) was calculated by the following formula at each concentration of the drug.
(§3) (T<T0): PG=100×[(T−T0)/T]
(§4) The PG values determined above for each cell line were plotted against the concentration (logarithm) on a semi-logarithmic graph, and summarized for each visceral cancer. Concentrations at which the dose-response curve of each cell line crossed the horizontal line of PG=50%, 0%, or −50% were calculated. These concentrations were defined as Log GI50, Log TGI, and Log LC50. Actually, using two data points of the drug concentration before and after crossing each horizontal line, the drug concentration (logarithmic value) at the intersection of the straight line connecting the two points and the horizontal line for each PG was calculated.

[9] = tested on: BSY-1 breast cancer cells; test: antitumor activity, sulforhodamine B cell growth assay, BSY-1; assay type: cell-based; conditions: BSY-1 breast cancer cells; read-out: antitumor activity GI50 value: 50% growth inhibitory concentration
Description: as §1, §2, §3, §4

[10] = tested on: HBC-5 breast cancer cells; test: antitumor activity, sulforhodamine B cell growth assay, HBC-5; assay type: cell-based; conditions: HBC-5 breast cancer cells; read-out: antitumor activity GI50 value: 50% growth inhibitory concentration
Description: as §1, §2, §3, §4

[11] = tested on: MDA-MB-231 breast cancer cells; test: antitumor activity, sulforhodamine B cell growth assay, MDA-MB-231; assay type: cell-based; conditions: MDA-MB-231 breast cancer cells; read-out: antitumor activity GI50 value: 50% growth inhibitory concentration
Description: as §1, §2, §3, §4

[12] = tested on: U251 central nervous system cancer cells; test: antitumor activity, sulforhodamine B cell growth assay, U251; assay type: cell-based; conditions: U251 central nervous system cancer cells; read-out: antitumor activity GI50 value: 50% growth inhibitory concentration
Description: as §1, §2, §3, §4

[13] = tested on: SF-295 central nervous system cancer cells; test: antitumor activity, sulforhodamine B cell growth assay, SF-295; assay type: cell-based; conditions: SF-295 central nervous system cancer cells; read-out: antitumor activity GI50 value: 50% growth inhibitory concentration
Description: as §1, §2, §3, §4

[14] = tested on: SF-539 central nervous system cancer cells; test: antitumor activity, sulforhodamine B cell growth assay, SF-539; assay type: cell-based; conditions: SF-539 central nervous system cancer cells; read-out: antitumor activity GI50 value: 50% growth inhibitory concentration
Description: as §1, §2, §3, §4

[15] = tested on: SNB-75 central nervous system cancer cells; test: antitumor activity, sulforhodamine B cell growth assay, SNB-75; assay type: cell-based; conditions: SNB-75 central nervous system cancer cells; read-out: antitumor activity GI50 value: 50% growth inhibitory concentration
Description: as §1, §2, §3, §4

[16] = tested on: SNB-78 central nervous system cancer cells; test: antitumor activity, sulforhodamine B cell growth assay, SNB-78; assay type: cell-based; conditions: SNB-78 central nervous system cancer cells; read-out: antitumor activity GI50 value: 50% growth inhibitory concentration
Description: as §1, §2, §3, §4

[17] = tested on: HCC2998 colorectal cancer cells; test: antitumor activity, sulforhodamine B cell growth assay, HCC2998; assay type: cell-based; conditions: HCC2998 colorectal cancer cells; read-out: antitumor activity GI50 value: 50% growth inhibitory concentration
Description: as §1, §2, §3, §4

[18] = tested on: KM-12 colorectal cancer cells; test: antitumor activity, sulforhodamine B cell growth assay, KM-12; assay type: cell-based; conditions: KM-12 colorectal cancer cells; read-out: antitumor activity GI50 value: 50% growth inhibitory concentration
Description: as §1, §2, §3, §4

[19] = tested on: HT-29 colorectal cancer cells; test: antitumor activity, sulforhodamine B cell growth assay, HT-29; assay type: cell-based; conditions: HT-29 colorectal cancer cells; read-out: antitumor activity GI50 value: 50% growth inhibitory concentration
Description: as §1, §2, §3, §4

[20] = tested on: HCT-15 colorectal cancer cells; test: antitumor activity, sulforhodamine B cell growth assay, HCT-15; assay type: cell-based; conditions: HCT-15 colorectal cancer cells; read-out: antitumor activity GI50 value: 50% growth inhibitory concentration
Description: as §1, §2, §3, §4

[21] = tested on: HCT-116 colorectal cancer cells; test: antitumor activity, sulforhodamine B cell growth assay, HCT-116; assay type: cell-based; conditions: HCT-116 colorectal cancer cells; read-out: antitumor activity GI50 value: 50% growth inhibitory concentration
Description: as §1, §2, §3, §4

[22] = tested on: NCI-H226 lung cancer cells; test: antitumor activity, sulforhodamine B cell growth assay, NCI-H226; assay type: cell-based; conditions: NCl-H226 lung cancer cells; read-out: antitumor activity GI50 value: 50% growth inhibitory concentration
Description: as §1, §2, §3, §4

[23] = tested on: NCI-H522 lung cancer cells; test: antitumor activity, sulforhodamine B cell growth assay, NCI-H522; assay type: cell-based; conditions: NCl-H522 lung cancer cells; read-out: antitumor activity GI50 value: 50% growth inhibitory concentration
Description: as §1, §2, §3, §4

[24] = tested on: NCI-H460 lung cancer cells; test: antitumor activity, sulforhodamine B cell growth assay, NCI-H460; assay type: cell-based; conditions: NCl--H460 lung cancer cells; read-out: antitumor activity GI50 value: 50% growth inhibitory concentration
Description: as §1, §2, §3, §4

A549 lung cancer cells [25] = test: antitumor activity, sulforhodamine B cell growth assay, A549; assay type: cell-based; conditions: A549 lung cancer cells; read-out: antitumor activity GI50 value: 50% growth inhibitory concentration
Description: as §1, §2, §3, §4

DMS273 lung cancer cells = test: antitumor activity, sulforhodamine B cell growth assay, DMS273; assay type: cell-based; conditions: DMS273 lung cancer cells; read-out: antitumor activity GI50 value: 50% growth inhibitory concentration
Description: as §1, §2, §3, §4

DMS114 lung cancer cells = test: antitumor activity, sulforhodamine B cell growth assay, DMS114; assay type: cell-based; conditions: DMS114 lung cancer cells; read-out: antitumor activity GI50 value: 50% growth inhibitory concentration
Description: as §1, §2, §3, §4

LOX-IMVI melanoma cells = test: antitumor activity, sulforhodamine B cell growth assay, LOX-IMVI; assay type: cell-based; conditions: LOX-IMVI melanoma cells; read-out: antitumor activity GI50 value: 50% growth inhibitory concentration
Description: as §1, §2, §3, §4

SK-OV-3 cancer cells = test: antitumor activity, sulforhodamine B cell growth assay, SK-OV-3; assay type: cell-based; conditions: SK-OV-3 cervical cancer cells; read-out: antitumor activity GI50 value: 50% growth inhibitory concentration
Description: as §1, §2, §3, §4

ACHN kidney cancer cells = test: antitumor activity, sulforhodamine B cell growth assay, ACHN; assay type: cell-based; conditions: ACHN kidney cancer cells; read-out: antitumor activity GI50 value: 50% growth inhibitory concentration
Description: as §1, §2, §3, §4

[26] = tested on: St-4 gastric cancer cells; test: antitumor activity, sulforhodamine B cell growth assay, St-4; assay type: cell-based; conditions: SI-4 gastric cancer cells; read-out: antitumor activity GI50 value: 50% growth inhibitory concentration
Description: as §1, §2, §3, §4

[27] = tested on: MKN1 gastric cancer cells; test: antitumor activity, sulforhodamine B cell growth assay, MKN1; assay type: cell-based; conditions: MKN1 gastric cancer cells; read-out: antitumor activity GI50 value: 50% growth inhibitory concentration
Description: as §1, §2, §3, §4

[28] = tested on: MKN-B gastric cancer cells; test: antitumor activity, sulforhodamine B cell growth assay, MKN-B; assay type: cell-based; conditions: MKN-B gastric cancer cells; read-out: antitumor activity GI50 value: 50% growth inhibitory concentration
Description: as §1, §2, §3, §4

[29] = tested on: MKN-A gastric cancer cells; test: antitumor activity, sulforhodamine B cell growth assay, MKN-A; assay type: cell-based; conditions: MKN-A gastric cancer cells; read-out: antitumor activity GI50 value: 50% growth inhibitory concentration
Description: as §1, §2, §3, §4

[30] = tested on: MKN45 gastric cancer cells; test: antitumor activity, sulforhodamine B cell growth assay, MKN45; assay type: cell-based; conditions: MKN45 gastric cancer cells; read-out: antitumor activity GI50 value: 50% growth inhibitory concentration
Description: as §1, §2, §3, §4

[31] = tested on: DU-145 prostate cancer cells; test: antitumor activity, sulforhodamine B cell growth assay, DU-145; assay type: cell-based; conditions: DU-145 prostate cancer cells; read-out: antitumor activity GI50 value: 50% growth inhibitory concentration
Description: as §1, §2, §3, §4

Compound: COc1c(C)cc2c(c1C)[C@H]1N(C)[C@@](C)(C2)C(C)N2C1(C)[C@@H]1CCC3(CCCC4=C3Cc3ccc(C)cc34)C(=O)OC[C@@]2(C)c2c3c(c(C)c(C)c21)OCO3 (stereo partly shown) [drawing 159]
- GI50 ([1]; MCF-7 breast cancer cells, comparative value based on the literature, read-out: antitumor activity GI50 value: 50% growth inhibitory concentration): 1.7 nM
- GI50 ([2]; MDA-MB-231 breast cancer cells, comparative value based on the literature, read-out: antitumor activity GI50 value: 50% growth inhibitory concentration): 3.4 nM
- GI50 ([3]; HT-29 colorectal cancer cells, comparative value based on the literature, read-out: antitumor activity GI50 value: 50% growth inhibitory concentration): 2.4 nM
- GI50 ([4]; HCT-116 colorectal cancer cells, comparative value based on the literature, read-out: antitumor activity GI50 value: 50% growth inhibitory concentration): 6.4 nM
- GI50 ([5]; NCl-H23 lung cancer cells, comparative value based on the literature, read-out: antitumor activity GI50 value: 50% growth inhibitory concentration): 5.3 nM
- GI50 ([6]; NCl--H460 lung cancer cells, comparative value based on the literature, read-out: antitumor activity GI50 value: 50% growth inhibitory concentration): 1.5 nM
- GI50 (A549 lung cancer cells [7]; A549 lung cancer cells, comparative value based on the literature, read-out: antitumor activity GI50 value: 50% growth inhibitory concentration): 1.3 nM

Compound: COc1cc2c(cc1O)CCN[C@]21CS[C@@H]2c3c(OC(C)=O)c(C)c4c(c3[C@H](COC1=O)N1[C@@H]2[C@H]2c3c(cc(C)c(OC)c3O)C[C@@H]([C@@H]1O)N2C)OCO4 [Ecteinascidin 743, reference compound]
- GI50 ([1]; MCF-7, reference values from literature (Leal et al. Br. J Pharmacol, 2010), read-out: GI50 value: 50% growth inhibitory concentration): 2.6 nM
- GI50 ([2]; MDA-MB-231, reference values from literature (Leal et al. Br. J Pharmacol, 2010), read-out: GI50 value: 50% growth inhibitory concentration): 3.9 nM
- GI50 ([3]; HT-29, reference values from literature (Leal et al. Br. J Pharmacol, 2010), read-out: GI50 value: 50% growth inhibitory concentration): 9.8 nM
- GI50 ([4]; HCT-116, reference values from literature (Leal et al. Br. J Pharmacol, 2010), read-out: GI50 value: 50% growth inhibitory concentration): 4.9 nM
- GI50 ([5]; NCI-H23, reference values from literature (Leal et al. Br. J Pharmacol, 2010), read-out: GI50 value: 50% growth inhibitory concentration): 2.1 nM
- GI50 ([6]; NCI-H460, reference values from literature (Leal et al. Br. J Pharmacol, 2010), read-out: GI50 value: 50% growth inhibitory concentration): 1.8 nM
- GI50 (A549 lung cancer cells [7]; A549, reference values from literature (Leal et al. Br. J Pharmacol, 2010), read-out: GI50 value: 50% growth inhibitory concentration): 10.4 nM

Compound: CC1=C(C)C(=O)C2=C(CC3(C)[C@H]4c5c(cc(C)c(C)c5C)C[C@@](C)(C(C)N3[C@H]2CNC(=O)C(C)C)N4C)C1=O (stereo partly shown) [drawing 164]
- GI50 [8]: 59 nM
- GI50 [9]: 34 nM
- GI50 [10]: 62 nM
- GI50 [11]: 130 nM
- GI50 [12]: 370 nM
- GI50 [13]: 500 nM
- GI50 [14]: 180 nM
- GI50 [15]: 150 nM
- GI50 [16]: 63 nM
- GI50 [17]: 350 nM
- GI50 [18]: 530 nM
- GI50 [19]: 190 nM
- GI50 [20]: 390 nM
- GI50 [21]: 290 nM
- GI50 [22]: 310 nM
- GI50 [23]: 43 nM
- GI50 [24]: 400 nM
- GI50 (A549 lung cancer cells [25]): 1600 nM
- GI50 (DMS273 lung cancer cells): 270 nM
- GI50 (DMS114 lung cancer cells): 35 nM
- GI50 (LOX-IMVI melanoma cells): 61 nM
- GI50 (SK-OV-3 cancer cells): 540 nM
- GI50 (ACHN kidney cancer cells): 320 nM
- GI50 [26]: 430 nM
- GI50 [27]: 52 nM
- GI50 [28]: 170 nM
- GI50 [29]: 250 nM
- GI50 [30]: 300 nM
- GI50 [31]: 490 nM
